Results published in ChEMBL document CHEMBL1137392, “Conformational analysis of an alpha3beta1 integrin-binding peptide from thrombospondin-1: implications for antiangiogenic drug design” (J Med Chem, 2006).
Where a SMILES comes first, the peptide text is derived from it. Bridges are numbered along the chain shown (N, C = ends).

test system: MDA-MB-435; assay: Inhibition of alpha3beta1 integrin-dependent adhesion of MDA-MB-435 cells; assay type: functional, cell-based; conditions: Homo sapiens

Question: `NC(=O)C[C@@H]1NC(=O)[C@@H](N)CSSC[C@@H](C(=O)O)NC(=O)[C@H](CCCN=C(N)N)NC(=O)CNC1=O` (H-CNGRC-OH; disulfide 1-5) was tested. Which IC50 did it give?
Answer: > 300 µM

Question: H-FQGVLQNVAFVF-OH was tested. Which IC50 did it give?
Answer: > 300 µM

Question: For `CC(=O)N[C@H](Cc1ccccc1)C(=O)N[C@@H](C(=O)N[C@H](Cc1ccccc1)C(=O)N[C@H](CCCN=C(N)N)C(=O)N[C@@H](C(=O)N[C@H](CC(N)=O)C(=O)N[C@H](CCC(N)=O)C(=O)N[C@H](CC(C)C)C(=O)N[C@@H](C(=O)NCC(=O)N[C@H](CCC(N)=O)C(=O)N[C@H](Cc1ccccc1)C(N)=O)C(C)C)C(C)C)C(C)C`, which IC50 is on record?
Answer: 16 µM

Question: For `CC(C)[C@@H]1NC(=O)[C@H](CC(N)=O)NC(=O)[C@@H](N)CSSC[C@@H](C(=O)O)NC(=O)[C@H](CCCN=C(N)N)NC1=O` (H-CNVRC-OH; disulfide 1-5), which IC50 is on record?
Answer: > 300 µM

Question: H-FQGVLQQVRFVF-OH was tested. Which IC50 did it give?
Answer: 27 µM

Question: How did the IC50 turn out when H-FQGVLQNLRFVF-OH was run?
Answer: 17 µM

Question: For H-FQGVLQNARFVF-OH, which IC50 is on record?
Answer: > 300 µM

Question: For H-FQGVLQDVRFVF-OH, which IC50 is on record?
Answer: 13 µM

Question: H-FQGVLQAVRFVF-OH was tested. Which IC50 did it give?
Answer: 300 µM
